Assay results taken from PMC7534330, “UHPLC-MS/MS method for pharmacokinetic and bioavailability determination of five bioactive components in raw and various processed products of Polygala tenuifolia in rat plasma” (Pharmaceutical Biology, 2020).

Test: Stability of the five analytes in rat plasma
Type: in vitro ADME
Conditions: rat plasma, n = 6; for Long-term stability, Mean: 4 weeks at −80 °C; for Short-term stability, Mean: 5 h at room temperature (25 °C); for Auto-sampler stability, Mean: 24 h in the autosampler at 4 °C; for Freeze-thaw stability, Mean: three freeze-thaw cycles from −20 °C to room temperature
Protocol: Stock standards of A5, A6, DSS, TFSA, TMCA and IS were prepared in methanol at a concentration of 1 mg/mL. A series of working standard solutions of the targeted compounds ranging from 10 to 20,000 ng/mL and the IS solution at 600 ng/mL were prepared by diluting the stock solutions with methanol and maintained at −20 °C. Calibration standards were freshly prepared by spiking the series of standard solutions (30 μL) including the IS into blank rat plasma (270 μL) to achieve concentrations of 1, 10, 50, 100, 500, 1000, 1600 and 2000 ng/mL. Quality control (QC) samples were prepared independently at low (2 ng/mL), medium (600 ng/mL) and high (1600 ng/mL) concentrations following the same method for the five compounds.
Stability studies included short-term stability (5 h at room temperature, i.e. 25 °C), freeze-thaw stability (three consecutive freeze-thaw cycles from −20 °C to room temperature), autosampler stability (24 h storage in the autosampler at 4 °C) and long-term stability (4 weeks storage at −80 °C). The stability data of all analytes are presented in Supplementary Table S4.

COc1cc(C=CC(=O)O)cc(OC)c1OC [TMCA, 3,4,5-trimethoxycinnamic acid]
Long-term stability, Mean (2 ng/mL): 98.3%
Short-term stability, Mean (2 ng/mL): 96.2%
Auto-sampler stability, Mean (2 ng/mL): 96.3%
Freeze-thaw stability, Mean (2 ng/mL): 95.3%
Long-term stability, Mean (600 ng/mL): 95.5%
Short-term stability, Mean (600 ng/mL): 98.3%
Auto-sampler stability, Mean (600 ng/mL): 99.8%
Freeze-thaw stability, Mean (600 ng/mL): 97.3%
Long-term stability, Mean (1600 ng/mL): 95.8%
Short-term stability, Mean (1600 ng/mL): 102.5%
Auto-sampler stability, Mean (1600 ng/mL): 99.5%
Freeze-thaw stability, Mean (1600 ng/mL): 98.8%
